According to patent publication US8904703B2, “Herbicide method and apparatus” (priority 2011, dated 2014):

Legend:
surrounding plant life = test: Field trials: effect of the Kudzu vine treatment on surrounding plant life; assay type: in vivo; conditions: observed through growth of new grass and new leaf growth
Source text: (§1) In operation, the chuck on a battery powered drill (not shown in the drawing) connects the drill to the drill shank 23. The tube 10 is placed near a Kudzu vine stem as that stem protrudes above the earth with the longitudinal tube axis 17 of the tube 10 generally perpendicular to the surface of earth 35 to press drill bit 11 against the soil. Preferably a 1.6 cm diameter black oxide coated drill bit is suitable for this purpose.
(§2) The drill is energized and the torque applied by the drill turns the tube 10 and the drill bit 11, causing the drill bit 11 and the balance of the tube 10 to bore into the earth. The drilling is continued until all of the perforations in the two perforation sets 12A and 22A are well below the surface of the earth, whereupon the drill is deactivated and disconnected from the shank 23.
(§3) A first of the two helium canisters 33 is then coupled through the flexible conduit 32 and the gas adapter 31 to the valve 28. Valve handle 34 is shifted to a valve open position and helium gas flows from the canister 33, through the valve 28 and into the hollow center 24 (FIG. 2) of the tube 10.
(§4) Once in the tube 10, under the gas pressure supplied by the helium canister 33, the helium gas disperses into soil 36 surrounding the tube 10 through the perforations in the sets 12A and 22A and migrates in the soil 36 to Kudzu vine root 37. […]

[1] = tested on: Kudzu vines (pueraria lobata); test: Field trials of helium gas applied to Kudzu vine root systems through a perforated tube; assay type: in vivo
Source text: With respect to the helium canister 33, two canisters, each having 0.25 cubic meters of helium gas under a pressure (when full) of at least 260 pounds per square inch (PSI), for a total of 0.5 cubic meters at standard atmospheric pressure and temperature provide a suitable herbicidal effect when the canister 33 (only one of which canisters is shown in the drawing) are applied in sequence in accordance with the invention. […] Naturally, for Kudzu eradication over larger areas, large helium tanks also have been used with great success.
as §1, §2, §3
as §4, with “37. Upon depletion of the helium in the canister 33, the valve handle 34 is shifted to close the valve 28.” for “37.”

[He] [helium]
Effect of Kudzu vine treatment on surrounding plant life (surrounding plant life): surprisingly beneficial
Kudzu vine herbicidal result ([1]; Balloon Time helium canisters, helium purity 94% to 96%, two canisters of 0.25 cubic meters applied in sequence): produced the desired Kudzu vine herbicidal result
Kudzu destroyed (estimated) ([1]; four weeks after exposure to helium, third test site): ~95%
Kudzu vines destroyed ([1]; four weeks after exposure to helium, two test sites, about 0.5 cubic meters helium into soil near roots): all of the Kudzu vines so treated were destroyed
